Assays:
MLLT1 = molecular target: T1, MLLT1 (Homo sapiens, UniProt Q03111); test: MLLT1 HTRF IC50 determination assay (H3K9cro peptide displacement); type: binding
T1 sequence (Q03111 1-559): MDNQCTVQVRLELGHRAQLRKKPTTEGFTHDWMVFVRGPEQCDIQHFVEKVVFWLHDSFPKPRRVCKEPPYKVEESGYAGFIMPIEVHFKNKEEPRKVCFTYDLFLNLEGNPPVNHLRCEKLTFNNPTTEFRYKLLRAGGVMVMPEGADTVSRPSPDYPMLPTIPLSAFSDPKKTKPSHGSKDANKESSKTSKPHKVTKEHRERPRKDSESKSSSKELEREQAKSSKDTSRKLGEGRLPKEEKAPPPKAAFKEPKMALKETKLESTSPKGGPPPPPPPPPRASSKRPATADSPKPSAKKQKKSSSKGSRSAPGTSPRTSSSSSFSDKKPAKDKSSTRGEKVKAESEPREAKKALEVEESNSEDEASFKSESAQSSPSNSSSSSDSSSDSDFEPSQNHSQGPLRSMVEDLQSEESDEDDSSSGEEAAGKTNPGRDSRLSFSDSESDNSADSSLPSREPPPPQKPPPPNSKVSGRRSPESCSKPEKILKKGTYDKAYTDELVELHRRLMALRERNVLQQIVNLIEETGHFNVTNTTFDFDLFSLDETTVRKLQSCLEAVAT
From the text: (§1) This procedure is intended to measure the interaction between YEATS proteins and histone peptides modified by an appropriate epigenetic mark and can be used to assay compounds which bind to the YEATS proteins and inhibit this interaction. The assay uses 6His tagged MLLT1 or MLLT3 with an anti-6His antibody conjugated with Eu^3+ chelate (donor) and a biotinylated peptide with Streptavidin conjugated XL-665 (acceptor). When the donor and acceptor labels are in close proximity, by binding of the peptide by MLLT1 or MLLT3, the excitation of the donor (337 nm) triggers a Fluorescence Resonance Energy Transfer (FRET) to the acceptor which then fluoresces at specific wavelength (665 nm).
(§2) This step optimises the protein/peptide ratio that will be used in HTRF screening assay in order to allow the best signal-to-noise ratio. Each new purified protein should be titrate this way as the signal-to-noise ratio may differ from different protein batches. Displacement assay for MLLT1 and MLLT3 was performed by using H3K9 cro peptide (ARTKQTAR(Kcrot)STGGKAPRKQLYK(biotin)).
(§3) A serial dilution of 4× solution of biotinylated peptide was prepared in assay buffer (25 mM HEPES, 20 mM NaCl, 0.05% BSA, 0.05% Tween-20, pH 7.0) covering concentrations from 3.2 μM to 0.2 nM. and 5 μL of each dilution were transferred horizontally to fill 15 columns of a white ProxiPlate-384 Plus shallow well Microplate (Perkin Elmer, USA). A sixteenth column of buffer was also included for a background reference. In parallel, a serial dilution of the 6His-tag protein of interest was prepared in the same way and 5 μL of each dilution were vertically added to the wells containing the peptide dilutions. Buffer has been transferred to the last line of the plate in order to make a no-protein reference. The microplate has been covered and incubated 1 hour at room temperature. A 2× detection mix was prepared in assay buffer by diluting streptavidin conjugated with XL-665 (610SAXLB, Cisbio Bioassays, France) to 1/2000 and anti-6His(Eu) chelate (LANCE Eu-W1024 Anti-6×His, ADO111, Perkinelmer LAS (UK)LTD) to 1/20000, 10 μL were added to each well and the plate has been incubated for 1 to 24 hours at room temperature in the dark. The plate was read in the Pherastar using the HTRF module with dual emission protocol (A=ex. 320 nm em. 665 nm, B=ex. 320 nm em. 620 nm).
(§4) The HTRF ratio was calculated as channel A/B*10000 and the specific signal as follow: specific signal=HTRF Ratio Positive signal—HTRF Ratio Negative signal (without protein). The concentrations of protein and peptide that allow the maximum specific signal without saturation were selected to perform HRTF screening assay described below.
(§5) The compounds were dissolved in DMSO at a stock concentration of 10 mM and dispensed into microplate using the Echo acoustic liquid handler (Labcyte, Beckman Coulter, USA). The assay covers a window of compound concentrations from 20 μM to 20 nM spread in 11 data points in duplicate. Solvent and compound controls were added to each plate in order to calculate the background signal.
(§6) Ten microliters of 2× mix of 6His-protein and biotinylated peptide, the concentrations were determined above, were added to the dispensed compounds and incubated for one hour at room temperature in the dark. Ten microliters of the 2× detection mix was added to each well and the plate was incubated for another hour at room temperature in the dark and the plate was read in order to calculate the HTRF specific signal. The % inhibition values as follows:
(§7) The IC50 values were determined by plotting % inhibition vs compound concentration and fitting the data to a non-linear sigmoidal dose response equation (4 parameter fit): […]

MLLT3 = molecular target: T2, MLLT3 (Homo sapiens, UniProt P42568); test: MLLT3 HTRF IC50 determination assay (H3K9cro peptide displacement); type: binding
T2 sequence (P42568 1-568): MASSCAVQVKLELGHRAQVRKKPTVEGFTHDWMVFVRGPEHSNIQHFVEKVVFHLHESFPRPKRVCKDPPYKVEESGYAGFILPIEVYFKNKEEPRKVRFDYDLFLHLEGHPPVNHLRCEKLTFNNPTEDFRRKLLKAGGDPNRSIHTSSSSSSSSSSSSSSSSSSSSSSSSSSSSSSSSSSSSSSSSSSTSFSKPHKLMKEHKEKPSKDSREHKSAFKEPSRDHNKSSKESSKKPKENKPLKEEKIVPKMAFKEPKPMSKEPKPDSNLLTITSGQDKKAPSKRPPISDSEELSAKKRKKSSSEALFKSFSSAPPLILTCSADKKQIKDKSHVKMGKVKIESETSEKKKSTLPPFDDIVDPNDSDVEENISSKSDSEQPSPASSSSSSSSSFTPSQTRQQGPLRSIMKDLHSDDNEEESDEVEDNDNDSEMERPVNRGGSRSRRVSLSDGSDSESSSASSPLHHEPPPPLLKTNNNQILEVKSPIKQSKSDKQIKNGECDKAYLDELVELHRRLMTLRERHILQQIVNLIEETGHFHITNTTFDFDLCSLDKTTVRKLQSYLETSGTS
From the text: as §1, §2, §3, §4, §5, §6, §7

`Cc1nn(C)c2cc(C(=O)Nc3cc4[nH]c(C5CCCN5C)c(F)c4cn3)ccc12` (single isomer, unassigned) [Example 89, N-{3-fluoro-2-[(rel-2S)-1-methylpyrrolidin-2-yl]-1H-pyrrolo[3,2-c]pyridin-6-yl}-1,3-dimethylindazole-6-carboxamide] was tested, and the IC50 (MLLT1; category, Table 4) was 100 to 1000 nM and the IC50 (MLLT3; category, Table 4) was 1000 to 10000 nM.

With `CCN1CCCC1c1cc2cnc(NC(=O)c3ccc4c(C)nn(C)c4c3)cc2[nH]1` (single isomer, unassigned) [Example 85, N-{2-[(rel-2S)-1-ethylpyrrolidin-2-yl]-1H-pyrrolo[3,2-c]pyridin-6-yl}-1,3-dimethylindazole-6-carboxamide] the IC50 (MLLT1; category, Table 4) was 1000 to 10000 nM.

`Cc1c(C2CCCN2C)[nH]c2cc(NC(=O)c3ccc4c(C)nn(C)c4c3)ncc12` (single isomer, unassigned) [Example 90, 1,3-dimethyl-N-{3-methyl-2-[(rel-2R)-1-methylpyrrolidin-2-yl]-1H-pyrrolo[3,2-c]pyridin-6-yl}indazole-6-carboxamide] gave an IC50 (MLLT1; Table 5) of 12 nM, an IC50 (MLLT1; category, Table 4) of no more than 100 nM and an IC50 (MLLT3; Table 5) of 45 nM. For the same compound, the IC50 (MLLT3; category, Table 4) was no more than 100 nM.

For `Cc1nn(C)c2cc(C(=O)Nc3cc4[nH]c([C@H]5CCCN5C)c(Cl)c4cn3)ccc12` [Example 80, N-{3-chloro-2-[(2R)-1-methylpyrrolidin-2-yl]-1H-pyrrolo[3,2-c]pyridin-6-yl}-1,3-dimethylindazole-6-carboxamide], the IC50 (MLLT1; Table 5) was 6 nM, the IC50 (MLLT1; category, Table 4) was no more than 100 nM and the IC50 (MLLT3; Table 5) was 22 nM. For the same compound, the IC50 (MLLT3; category, Table 4) was no more than 100 nM.

For `Cc1c(C2CCCN2C)[nH]c2cc(NC(=O)c3ccc4c(C)nn(C)c4c3)ncc12` (single isomer, unassigned) [Example 91, 1,3-dimethyl-N-{3-methyl-2-[(rel-2S)-1-methylpyrrolidin-2-yl]-1H-pyrrolo[3,2-c]pyridin-6-yl}indazole-6-carboxamide], the IC50 (MLLT1; category, Table 4) was 1000 to 10000 nM and the IC50 (MLLT3; category, Table 4) was 1000 to 10000 nM.

For `Cc1nn(C)c2cc(C(=O)Nc3cc4[nH]c(C5CCCN5C)c(F)c4cn3)ccc12` (single isomer, unassigned) [Example 88, N-{3-fluoro-2-[(rel-2R)-1-methylpyrrolidin-2-yl]-1H-pyrrolo[3,2-c]pyridin-6-yl}-1,3-dimethylindazole-6-carboxamide], the IC50 (MLLT1; Table 5) was 17 nM, the IC50 (MLLT1; category, Table 4) was no more than 100 nM and the IC50 (MLLT3; Table 5) was 37 nM. For the same compound, the IC50 (MLLT3; category, Table 4) was no more than 100 nM.

In the case of `Cc1nn(C)c2cc(C(=O)Nc3cc4[nH]c(C5CCCN5C)cc4cn3)ccc12` (racemic) [Example 75, rac-1,3-dimethyl-N-(2-(1-methylpyrrolidin-2-yl)-1H-pyrrolo[3,2-c]pyridin-6-yl)-1H-indazole-6-carboxamide], the IC50 (MLLT1; category, Table 4) is reported as no more than 100 nM and the IC50 (MLLT3; category, Table 4) is reported as 100 to 1000 nM.

`Cc1nn(C)c2cc(C(=O)Nc3cc4[nH]c([C@@H]5CCCN5C)cc4cn3)ccc12` (single isomer, unassigned) [Example 77] gave an IC50 (MLLT1; category, Table 4) of 100 to 1000 nM and an IC50 (MLLT3; category, Table 4) of 1000 to 10000 nM.

`CN1CCCC1c1cc2cnc(NC(=O)c3ccc4c(cnn4C)c3)cc2[nH]1` (single isomer, unassigned) [Example 78, 1-methyl-N-{2-[(rel-2S)-1-methylpyrrolidin-2-yl]-1H-pyrrolo[3,2-c]pyridin-6-yl}indazole-5-carboxamide] was tested, and the IC50 (MLLT1; category, Table 4) was 1000 to 10000 nM and the IC50 (MLLT3; category, Table 4) was 1000 to 10000 nM.

`Cc1nc(NC(=O)c2ccc3c(C)nn(C)c3c2)cc2[nH]c(C3CCCN3C)cc12` (single isomer, unassigned) [Example 93, 1,3-dimethyl-N-{4-methyl-2-[(rel-2S)-1-methylpyrrolidin-2-yl]-1H-pyrrolo[3,2-c]pyridin-6-yl}indazole-6-carboxamide] gave an IC50 (MLLT1; category, Table 4) of 1000 to 10000 nM and an IC50 (MLLT3; category, Table 4) of 1000 to 10000 nM.

`CCN1CCCC1c1cc2cnc(NC(=O)c3ccc4c(C)nn(C)c4c3)cc2[nH]1` (single isomer, unassigned) [Example 84, N-{2-[(rel-2R)-1-ethylpyrrolidin-2-yl]-1H-pyrrolo[3,2-c]pyridin-6-yl}-1,3-dimethylindazole-6-carboxamide] was tested, and the IC50 (MLLT1; category, Table 4) was 100 to 1000 nM and the IC50 (MLLT3; category, Table 4) was 100 to 1000 nM.

`Cc1nn(C)c2cc(C(=O)Nc3cc4[nH]c([C@@H]5CCCN5C)c(Cl)c4cn3)ccc12` [Example 81, N-{3-chloro-2-[(2S)-1-methylpyrrolidin-2-yl]-1H-pyrrolo[3,2-c]pyridin-6-yl}-1,3-dimethylindazole-6-carboxamide] was tested, and the IC50 (MLLT1; category, Table 4) was 100 to 1000 nM and the IC50 (MLLT3; category, Table 4) was 1000 to 10000 nM.

In the case of `CN1CCCC1c1cc2cnc(NC(=O)c3ccc4c(cnn4C)c3)cc2[nH]1` (single isomer, unassigned) [Example 79, 1-methyl-N-{2-[(rel-2R)-1-methylpyrrolidin-2-yl]-1H-pyrrolo[3,2-c]pyridin-6-yl}indazole-5-carboxamide], the IC50 (MLLT1; category, Table 4) is reported as no more than 100 nM and the IC50 (MLLT3; category, Table 4) is reported as no more than 100 nM.

In the case of `CN1CCCC1c1[nH]c2cc(NC(=O)c3ccc4c(cnn4C)c3)ncc2c1F` (single isomer, unassigned) [Example 87, N-{3-fluoro-2-[(rel-2R)-1-methylpyrrolidin-2-yl]-1H-pyrrolo[3,2-c]pyridin-6-yl}-1-methylindazole-5-carboxamide], the IC50 (MLLT1; category, Table 4) is reported as no more than 100 nM and the IC50 (MLLT3; category, Table 4) is reported as no more than 100 nM.

For `Cc1nc(NC(=O)c2ccc3c(C)nn(C)c3c2)cc2[nH]c(C3CCCN3C)cc12` (single isomer, unassigned) [Example 92, 1,3-dimethyl-N-{4-methyl-2-[(rel-2R)-1-methylpyrrolidin-2-yl]-1H-pyrrolo[3,2-c]pyridin-6-yl}indazole-6-carboxamide], the IC50 (MLLT1; Table 5) was 37 nM, the IC50 (MLLT1; category, Table 4) was no more than 100 nM and the IC50 (MLLT3; Table 5) was 63 nM. The IC50 (MLLT3; category, Table 4) was no more than 100 nM.

Work on `CN1CCCC1c1[nH]c2cc(NC(=O)c3ccc4c(cnn4C)c3)ncc2c1F` (single isomer, unassigned) [Example 86, N-{3-fluoro-2-[(rel-2S)-1-methylpyrrolidin-2-yl]-1H-pyrrolo[3,2-c]pyridin-6-yl}-1-methylindazole-5-carboxamide] yielded an IC50 (MLLT1; category, Table 4) of 1000 to 10000 nM and an IC50 (MLLT3; category, Table 4) of 1000 to 10000 nM.

— patent US20260199484A1, “PROTAC DEGRADERS OF MLLT1 AND/OR MLLT3” (DARK BLUE THERAPEUTICS LTD, priority 2024, published 2026)
